Assay results from patent publication US20140088124A1, “IMIDAZOLE DERIVATIVES” (priority 2011, published 2014).

molecular target: T1, human DGAT1 enzyme expressed in Sf9 insect cells prepared as microsomes (Homo sapiens, UniProt O75907); experiment: in vitro assay to identify DGAT1 inhibitors ([14C]-palmitoyl-CoA, wheat germ agglutinin beads, TopCount); type: biochemical; conditions: 2 hours at room temperature
T1 construct: made in house; host or cells: Sf9 insect cells (microsomes)
T1 sequence (O75907 1-488): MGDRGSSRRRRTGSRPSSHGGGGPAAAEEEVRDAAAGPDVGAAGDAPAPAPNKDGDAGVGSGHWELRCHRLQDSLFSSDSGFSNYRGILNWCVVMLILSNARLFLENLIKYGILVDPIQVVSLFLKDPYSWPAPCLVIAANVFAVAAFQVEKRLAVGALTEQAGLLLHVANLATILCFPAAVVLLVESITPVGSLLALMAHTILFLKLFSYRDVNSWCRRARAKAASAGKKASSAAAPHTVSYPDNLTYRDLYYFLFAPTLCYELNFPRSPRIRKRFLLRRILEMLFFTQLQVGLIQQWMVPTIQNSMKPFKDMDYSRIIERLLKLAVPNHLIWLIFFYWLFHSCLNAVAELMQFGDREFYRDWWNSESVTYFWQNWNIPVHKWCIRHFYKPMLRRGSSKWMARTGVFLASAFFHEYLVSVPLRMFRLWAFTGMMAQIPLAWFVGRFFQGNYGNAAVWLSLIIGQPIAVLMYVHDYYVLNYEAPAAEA
Description: If compounds 141-162 were assayed they were assayed as follows: the in vitro assay to identify DGAT1 inhibitors uses human DGAT1 enzyme expressed in Sf9 insect cells prepared as microsomes. The reaction is initiated by the addition of the combined substrates 1,2-dioleoyl-sn-glycerol and [^14C]-palmitoyl-Co A and incubated with test compounds and microsomal membranes for 2 hours at room temperature. The assay is stopped by adding 0.5 mg wheat germ agglutinin beads in assay buffer with 1% Brij-35 and 1% 3-cholamidopropyldimethyl-ammonio-1-propane sulfonate. Plates are sealed with TopSeal and incubated for 18 hours to allow the radioactive triglyceride product to come into proximity with the bead. Plates are read on a TopCount instrument.
Percent inhibition was calculated as the percent of (test compound inhibition minus non-specific binding) relative to (total binding minus non-specific binding). IC50 values were determined by curve fitting the data to a Sigmoidal dose-response in GraphPad Prism utilizing the following equation:
Y=A+(B−A)/(1+10̂((Log IC50−X))),
where A and B are the bottom and top of the curve (highest and lowest inhibition), respectively, and X is the logarithm of concentration.

How did the IC50 turn out when `O=C(O)C1(COCC2CCN(c3ccc(-c4nc5cc(Cl)ccc5[nH]4)cn3)CC2)CCC1` [Example 161] was run?
The IC50 was 95 nM.

`COC(=O)c1cccc(OCC2CCN(c3ccc(-c4nc5cc(C(F)(F)F)ccc5[nH]4)cn3)CC2)c1` [Example 141, methyl 3-[[1-[5-[5-(trifluoromethyl)-1H-benzol[d]imidazol-2-yl]pyridine-2-yl]piperidin-4-yl]methoxy]benzoate] was tested. Which IC50 did it give?
The IC50 was 2500 nM.

Which IC50 does the source give for `CC(C)(COCC1CCN(c2ccc(-c3nc4cc(C(F)(F)F)ccc4[nH]3)cn2)CC1)C(=O)O` [Example 160] here?
Its IC50 is 84 nM.

Which IC50 does the source give for `COC(=O)c1cccc(OCC2CCN(c3ccc(-c4nc5cc(Cl)ccc5[nH]4)cn3)CC2)c1` [Example 143] here?
Its IC50 is 1830 nM.

How did the IC50 turn out when `O=C(O)c1ccccc1OCC1CCN(c2ccc(-c3nc4cc(Cl)ccc4[nH]3)cn2)CC1` [Example 153] was run?
The IC50 was 85 nM.

`COC(=O)c1ccccc1OCC1CCN(c2ccc(-c3nc4cc(C(F)(F)F)ccc4[nH]3)cn2)CC1` [Example 151] was tested. Which IC50 did it give?
The IC50 was 2700 nM.

How did the IC50 turn out when `O=C(O)C1(COCC2CCN(c3ccc(-c4nc5cc(C(F)(F)F)ccc5[nH]4)cn3)CC2)CCC1` [Example 162] was run?
Its IC50 is 62 nM.

`O=C(O)c1ccc(F)cc1OCC1CCN(c2ccc(-c3nc4cc(Cl)ccc4[nH]3)cn2)CC1` [Example 154] was tested. Which IC50 did it give?
The IC50 was 58 nM.

Which IC50 does the source give for `Cc1ccc(C(=O)O)cc1OCC1CCN(c2ccc(-c3nc4cc(Cl)ccc4[nH]3)cn2)CC1` [Example 156] here?
Its IC50 is 12 nM.

Which IC50 does the source give for `O=C(O)c1cccc(OCC2CCN(c3ccc(-c4nc5cc(C(F)(F)F)ccc5[nH]4)cn3)CC2)c1` [Example 142, 3-[[1-[5-[5-(trifluoromethyl)-1H-benzol[d]imidazol-2-yl]pyridine-2-yl]piperidin-4-yl]methoxy]benzoic acid] here?
Its IC50 is 13 nM.

With `O=C(O)c1cccc(OCC2CCN(c3ccc(-c4nc5cc(Cl)ccc5[nH]4)cn3)CC2)c1` [Example 144] as the compound, how does the IC50 read?
Its IC50 is 8 nM.

Which IC50 does the source give for `Cc1ccc(C(=O)O)cc1OCC1CCN(c2ccc(-c3nc4cc(C(F)(F)F)ccc4[nH]3)cn2)CC1` [Example 157] here?
The IC50 was 15 nM.

For `O=C(O)c1cc(OCC2CCN(c3ccc(-c4nc5cc(Cl)ccc5[nH]4)cn3)CC2)cc(C(=O)O)c1` [Example 146, 5-((1-(5-(5-chloro-1H-benzo[d]imidazol-2-yl)pyridin-2-yl)piperidin-4-yl)methoxy)isophthalic acid], which IC50 is on record?
The IC50 was 18 nM.

For `O=C(O)c1cc(F)ccc1OCC1CCN(c2ccc(-c3nc4cc(Cl)ccc4[nH]3)cn2)CC1` [Example 148, 2-[[1-[5-(6-chloro-1H-benzimidazol-2-yl)-2-pyridinyl]-4-piperidinyl]methoxy]-5-fluorobenzoic acid], which IC50 is on record?
Its IC50 is 1070 nM.

How did the IC50 turn out when `O=C(O)c1ccccc1OCC1CCN(c2ccc(-c3nc4cc(C(F)(F)F)ccc4[nH]3)cn2)CC1` [Example 152] was run?
Its IC50 is 14 nM.

`O=C(O)c1ccc(F)cc1OCC1CCN(c2ccc(-c3nc4cc(C(F)(F)F)ccc4[nH]3)cn2)CC1` [Example 155] was tested. Which IC50 did it give?
The IC50 was 31 nM.

How did the IC50 turn out when `O=C(O)c1ccc(OCC2CCN(c3ccc(-c4nc5cc(Cl)ccc5[nH]4)cn3)CC2)cc1` [Example 150, 4-[[1-[5-(6-Chloro-1H-benzimidazol-2-yl)-2-pyridinyl]-4-piperidinyl]methoxy]benzoic acid] was run?
Its IC50 is 67 nM.

With `CC(C)(COCC1CCN(c2ccc(-c3nc4cc(Cl)ccc4[nH]3)cn2)CC1)C(=O)O` [Example 159] as the compound, how does the IC50 read?
The IC50 was 108 nM.
